Experiments:
[1] = in vivo; cited from earlier work
[2] = Storage stability of analytes in mouse tumor homogenate (method validation); conditions: for Freeze and thaw stability at -80 °C/ room temperature, Bias / Freeze and thaw stability at -80 °C/ room temperature, Measured concentration / Short term stability at room temperature (6 h), Bias / Short term stability at room temperature (6 h), Measured concentration: mouse tumor homogenate; for Freeze and thaw stability at -80 °C/ room temperature, Bias / Freeze and thaw stability at -80 °C/ room temperature, Measured concentration: 3 cycles; for Freeze and thaw stability at -80 °C/ room temperature, Bias / Short term stability at room temperature (6 h), Bias / Auto-sampler stability at 2-8 °C, Bias: low QC (Leu-DOX 27, DOX 9 pmol/mL), n = 6; for Freeze and thaw stability at -80 °C/ room temperature, Measured concentration / Short term stability at room temperature (6 h), Measured concentration / Auto-sampler stability at 2-8 °C, Measured concentration: low QC (nominal Leu-DOX 27, DOX 9 pmol/mL), n = 6, mean ± SD; for Auto-sampler stability at 2-8 °C, Bias / Auto-sampler stability at 2-8 °C, Measured concentration: processed mouse tumor homogenate, 48h
Protocol: Tumor-bearing mouse tumor/individual tissue samples were homogenized by adding PBS at a ratio of 1:5 (e.g., 1 g of tumor sample to 5 mL of PBS) to make a tumor/tissue homogenate. A quantity of 60 µL of homogenate was taken as a tumor/tissue sample and processed in the same manner as the mouse plasma sample, with the exception of 240 µL of IS working solution used for protein precipitation.
By investigating low- and high-concentration stability QCs in six replicates at different storage conditions, autosampler, short-term (bench-top), freeze and thaw, and long-term stability evaluations were conducted.

legumain = target: T1, legumain (Homo sapiens, UniProt Q99538); experiment: Stability of Leu-DOX in the legumain enzymatic system; type: in vitro ADME; conditions: plasma samples spiked with Leu-DOX, enzymatic digestion procedure (24 h, 37 °C), n = 3
T1 sequence (Q99538 18-433): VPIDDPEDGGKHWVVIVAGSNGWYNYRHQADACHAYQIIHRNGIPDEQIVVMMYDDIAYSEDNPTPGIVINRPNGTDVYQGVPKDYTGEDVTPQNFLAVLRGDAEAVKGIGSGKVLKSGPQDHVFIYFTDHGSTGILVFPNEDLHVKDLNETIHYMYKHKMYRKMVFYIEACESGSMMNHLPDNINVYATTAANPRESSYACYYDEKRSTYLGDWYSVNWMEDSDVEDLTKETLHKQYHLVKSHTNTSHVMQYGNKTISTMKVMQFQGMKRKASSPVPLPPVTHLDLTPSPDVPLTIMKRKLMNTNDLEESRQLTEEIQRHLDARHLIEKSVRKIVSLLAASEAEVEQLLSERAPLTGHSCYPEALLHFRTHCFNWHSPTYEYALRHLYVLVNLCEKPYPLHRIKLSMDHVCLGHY
Protocol: The specific liquid-phase conditions are shown as follows. Column: Agilent Eclipse Plus 4.6 × 250 mm, 5 µm; mobile phase A: 0.1% trifluoroacetic acid in water; mobile phase B: acetonitrile. Flow rate: 1.0 mL/min; HPLC: Waters 2695; detector: Waters 2475 detector (ex470/em600); column temperature: 30 °C; injection volume: 10 µL; run time: 30 min; needle wash solvent: 50% acetonitrile in water; gradient elution: starting 20% B, increasing from 20% to 45% B in 15 min, increasing from 45% to 80% B in 15 to 20 min, maintained for 5 min, then decreasing to 20% B in 0.1 min, and continuing until the end of 30 min. (b) Kinetics of Leu-Dox release from legubicin (black) and legubicin–albumin conjugate (blue) in the presence of legumain (n = 4). (c) Stability of Leu-Dox in this enzymatic system (n = 3).
The assessment of Leu-DOX stability in the aforementioned enzymatic systems warrants careful consideration. Consequently, plasma samples containing Leu-DOX were intentionally supplemented to assess the potential impacts of these methods on the precise determination of the enzymatic digestion of the legubicin plasma protein complex, which is utilized for determining the total Leu-DOX post-digestion. […]

Row | Compound | Vz [1] | clearance (CL) [1] | Freeze and thaw stability at -80 °C/ room temperature, Bias [2] | Freeze and thaw stability at -80 °C/ room temperature, Measured concentration [2] | Short term stability at room temperature (6 h), Bias [2] | Short term stability at room temperature (6 h), Measured concentration [2] | Auto-sampler stability at 2-8 °C, Bias [2] | Auto-sampler stability at 2-8 °C, Measured concentration [2] | stability in the legumain enzymatic digestion system (legumain)
1 | COc1cccc2c1C(=O)c1c(O)c3c(c(O)c1C2=O)C[C@@](O)(C(=O)CO)C[C@@H]3O[C@H]1C[C@H](N)[C@H](O)[C@H](C)O1 [DOX, Doxorubicin] | 72 L/kg | approximately 2553 mL/h/kg | -1.2% | 8.89 ± 0.66 pmol/mL | 5.7% | 9.51 ± 0.67 pmol/mL | -5.1% | 8.54 ± 0.89 pmol/mL | –
2 | COc1cccc2c1C(=O)c1c(O)c3c(c(O)c1C2=O)C[C@@](O)(C(=O)CO)C[C@@H]3O[C@H]1C[C@H](NC(=O)[C@@H](N)CC(C)C)[C@H](O)[C@H](C)O1 [Leu-DOX, N-L-leucyl-doxorubicin] | – | – | 2.6% | 27.70 ± 1.13 pmol/mL | 2.2% | 27.58 ± 1.95 pmol/mL | -0.4% | 26.88 ± 0.94 pmol/mL | remained unaltered throughout the enzymatic digestion procedure

— PMC10892419, “UHPLC-MS/MS Assay for Quantification of Legubicin, a Novel Doxorubicin-Based Legumain-Activated Prodrug, and Its Application to Pharmacokinetic and Tissue Distribution Studies” (Molecules, 2024)
